Measured values: BindingDB's records for doi:10.7270/Q2J96B77 (D3R/Abbott, 2020)

What follows are compounds tested against Cathepsin S (Homo sapiens, UniProt P25774) (assay: D3R2020).
Cathepsin S, sequence (P25774 whole entry): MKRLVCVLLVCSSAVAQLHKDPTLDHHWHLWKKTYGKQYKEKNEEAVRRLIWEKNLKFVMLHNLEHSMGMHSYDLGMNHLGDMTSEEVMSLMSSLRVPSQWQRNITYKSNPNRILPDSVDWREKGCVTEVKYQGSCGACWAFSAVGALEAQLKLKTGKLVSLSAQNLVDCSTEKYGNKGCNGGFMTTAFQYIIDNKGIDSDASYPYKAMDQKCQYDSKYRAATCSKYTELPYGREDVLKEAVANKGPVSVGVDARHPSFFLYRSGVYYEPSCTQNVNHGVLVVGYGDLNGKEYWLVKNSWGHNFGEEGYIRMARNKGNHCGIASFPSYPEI

| SMILES | IC50 [nM] |
| --- | --- |
| COc1ccccc1C1CCN(C[C@H](O)Cn2nc(-c3ccc(C(F)(F)F)c(SCCN4CCCCC4)c3)c3c2CCNC3)CC1 [CatS_5] | 200 |
| CC1(C)CCN(C[C@H](O)Cn2nc(-c3ccc(C(F)(F)F)c(CNCc4ccc(F)cc4)c3)c3c2CCN(S(C)(=O)=O)C3)CC1 [CatS_8] | 74 |
| CC(C)=CC(=O)NCc1cc(-c2nn(CCCN(C)C)c3c2CN(C(=O)CC2CCNCC2)CC3)ccc1C(F)(F)F [CatS_16] | 260 |
| CS(=O)(=O)N1CCc2c(c(-c3ccc(Cl)c(C#Cc4ccc(CNCc5ccc(Cl)cc5)cc4)c3)nn2CCCN2CCN(C3CC3)CC2)C1 [CatS_17] | 64 |
| CS(=O)(=O)N1CCc2c(c(-c3ccc(C(F)(F)F)c(CNCc4ccc(F)cc4)c3)nn2CCCN2CCC(C3CCCCC3)CC2)C1 [CatS_26] | 15 |
| CS(=O)(=O)N1CCc2c(c(-c3ccc(Cl)c(C#Cc4ccc(CNCc5ccc(Cl)cc5)cc4)c3)nn2CCCN2CCC(N3CCCC3=O)CC2)C1 [CatS_43] | 18 |
| CC(=O)NC1CCN(CCCn2nc(-c3ccc(Cl)c(C#Cc4ccc5c(c4)CNCC5)c3)c3c2CCN(S(C)(=O)=O)C3)CC1 [CatS_50] | 37 |
| CS(=O)(=O)N1CCc2c(c(-c3ccc(Cl)c(C#Cc4ccc(CNCC(F)(F)F)cc4)c3)nn2CCCN2CCC(N3CCCC3=O)CC2)C1 [CatS_56] | 95 |
| CS(=O)(=O)N1CCc2c(c(-c3ccc(Cl)c(C#Cc4ccc(C=O)cc4)c3)nn2CCCN2CCOCC2)C1 [CatS_64] | 110 |
| COC(=O)[C@@H]1Cc2ccc(C#Cc3cc(-c4nn(CCCN5CCOCC5)c5c4CN(S(C)(=O)=O)CC5)ccc3Cl)cc2CN1 [CatS_71] | 65 |
| CS(=O)(=O)N1CCc2c(c(-c3ccc(Cl)c(C#Cc4ccc(CN[C@H](CO)c5ccccc5)cc4)c3)nn2CCCN2CCN(c3ccccn3)CC2)C1 [CatS_75] | 25 |
| CN(Cc1ccc(Cl)cc1)Cc1ccc(C#Cc2cc(-c3nn(CCCN4CCN(c5ccccc5)CC4)c4c3CN(S(C)(=O)=O)CC4)ccc2Cl)cc1 [CatS_76] | 72 |
| CS(=O)(=O)N1CCc2c(c(-c3ccc(Cl)c(C#Cc4ccc(CN[C@@H]5c6ccccc6C[C@@H]5O)cc4)c3)nn2CCCN2CCN(c3ccccc3)CC2)C1 [CatS_77] | 35 |
| NC(=O)N1CCc2c(c(-c3ccc(Cl)c(C#Cc4ccc(CN[C@@H]5CCCc6ccccc65)cc4)c3)nn2CCCN2CCOCC2)C1 [CatS_80] | 98 |
| CCNCc1cc(C#Cc2cc(-c3nn(CCCN4CCCCC4)c4c3CN(C(=O)C(N)=O)CC4)ccc2Cl)ccc1Cl [CatS_82] | 15 |
| CC(C)(O)CNCc1cc(C#Cc2cc(-c3nn(CCCN4CCSCC4)c4c3CN(C(=O)C(N)=O)CC4)ccc2Cl)ccc1Cl [CatS_87] | 25 |
| NC(=O)C(=O)N1CCc2c(c(-c3ccc(Cl)c(C#Cc4ccc(Cl)c(CN[C@@H](CO)c5ccccc5)c4)c3)nn2CCCN2CCSCC2)C1 [CatS_88] | 25 |
| C[C@H]1COCCN1CCCn1nc(-c2ccc(Cl)c(C#Cc3ccc(CNCc4ccc(Cl)cc4)cc3)c2)c2c1CCN(S(C)(=O)=O)C2 [CatS_98] | 76 |
| C[C@H]1COCCN1CCCn1nc(-c2ccc(Cl)c(C#Cc3ccc(Cl)c(C(=O)NC[C@@H]4CCCN4)c3)c2)c2c1CCN(C(=O)C(N)=O)C2 [CatS_101] | 25 |
| C[C@H]1COCCN1CCCn1nc(-c2ccc(Cl)c(C#Cc3ccc(Cl)c(CNCCCO)c3)c2)c2c1CCN(C(N)=O)C2 [CatS_104] | 20 |
| CNCCCNC(=O)c1ccc(C#Cc2cc(-c3nn(CCCN4CCOC[C@@H]4C)c4c3CN(C(=O)C(N)=O)CC4)ccc2Cl)cc1 [CatS_111] | 35 |
| CC(C)CCNCc1cc(-c2nn(CCCN3CCC(N4CCCC4=O)CC3)c3c2CN(S(C)(=O)=O)CC3)ccc1C(F)(F)F [CatS_126] | 240 |
| CC(=O)NC1CCN(CCCn2nc(-c3ccc(C(F)(F)F)c(SCCO)c3)c3c2CCN(S(C)(=O)=O)C3)CC1 [CatS_132] | 340 |

Second part, the compound after the results:

| IC50 [nM] | SMILES |
| --- | --- |
| 55 | Cn1c(=O)n(C2CCN(CCCn3nc(-c4ccc(C(F)(F)F)cc4)c4c3CCN(C(=O)c3c[nH]cn3)C4)CC2)c2ccccc21 [CatS_3] |
| 160 | CC(=O)N1CCc2c(c(-c3ccc(C(F)(F)F)c(SCC(=O)N4CCCC4)c3)nn2C[C@H](O)CN2CCC(C(C)(C)O)CC2)C1 [CatS_11] |
| 30 | CC(C)(C)C1CCN(CCCn2nc(-c3ccc(C(F)(F)F)c(CNCc4ccc(F)cc4)c3)c3c2CCN(S(C)(=O)=O)C3)CC1 [CatS_12] |
| 58 | CC1CCN(CCSc2cc(-c3nn(C[C@@H](O)CN4CCC(N5C[C@@H](O)CC5=O)CC4)c4c3CN(S(C)(=O)=O)CC4)ccc2C(F)(F)F)CC1 [CatS_13] |
| 170 | CC(C)=CC(=O)NCc1cc(-c2nn(CCCN3CCOCC3)c3c2CN(C(=O)CC2CCN(C(=O)OC(C)(C)C)CC2)CC3)ccc1C(F)(F)F [CatS_18] |
| 95 | O=C(CO)N1CCc2c(c(-c3ccc(Cl)c(C#Cc4ccc(CNCc5ccc(Cl)cc5)cc4)c3)nn2CCCN2CCSCC2)C1 [CatS_40] |
| 65 | CS(=O)(=O)N1CCc2c(c(-c3ccc(Cl)c(C#Cc4cccc(CNCc5ccc(Cl)cc5)c4)c3)nn2CCCN2CCN(c3ccccc3)CC2)C1 [CatS_78] |
| 35 | NC(=O)N1CCc2c(c(-c3ccc(Cl)c(C#Cc4ccc(Cl)c(CN5CCOCC5)c4)c3)nn2CCCN2CCCCC2)C1 [CatS_84] |
| 25 | NC(=O)C(=O)N1CCc2c(c(-c3ccc(Cl)c(C#Cc4ccc(Cl)c(C(=O)N[C@@H](CO)c5ccccc5)c4)c3)nn2CCCN2CCSCC2)C1 [CatS_89] |
| 35 | C[C@H]1COCCN1CCCn1nc(-c2ccc(Cl)c(CCc3ccc(CNCc4ccc(Cl)cc4)cc3)c2)c2c1CCN(C(=O)C(N)=O)C2 [CatS_95] |
| 45 | C[C@H]1COCCN1CCCn1nc(-c2ccc(Cl)c(C#Cc3ccc(C(=O)NCCN4CCOCC4)cc3)c2)c2c1CCN(C(=O)C(N)=O)C2 [CatS_100] |
| 15 | C[C@H]1COCCN1CCCn1nc(-c2ccc(Cl)c(C#Cc3ccc(Cl)c(CNCc4ccccc4)c3)c2)c2c1CCN(C(=O)C(N)=O)C2 [CatS_102] |
| 25 | COC(=O)CNCc1cc(C#Cc2cc(-c3nn(CCCN4CCOC[C@@H]4C)c4c3CN(C(N)=O)CC4)ccc2Cl)ccc1Cl [CatS_109] |
| 15 | NC(=O)N1CCc2c(c(-c3ccc(Cl)c(CCc4ccc(Cl)cc4)c3)nn2C[C@@H](O)CN2CCC(C3CCNCC3)CC2)C1 [CatS_117] |
| 25 | CC(C)(C)OC(=O)N1CCC(C2CCN(C[C@H](O)Cn3nc(-c4ccc(Cl)c(CCc5ccc(Cl)cc5)c4)c4c3CCN(C(N)=O)C4)CC2)CC1 [CatS_121] |
| 1170 | CS(=O)(=O)N1CCc2c(c(-c3ccc(Cl)c(CCCN4CCOCC4)c3)nn2CCCN2CCC(N3CCCC3=O)CC2)C1 [CatS_123] |
| 85 | CS(=O)(=O)N1CCc2c(c(-c3ccc(C(F)(F)F)c(SCC(=O)N4CCC[C@@H]4C(N)=O)c3)nn2CCCN2CCC(N3CCCC3=O)CC2)C1 [CatS_129] |
| 310 | CC(=O)N1CCN(CCCn2nc(-c3ccc(C(F)(F)F)c(SCC(=O)N4CCOCC4)c3)c3c2CCN(S(C)(=O)=O)C3)CC1 [CatS_131] |
